In brackets after ≈: the same amount, converted by molar mass.
Columns and labels:
KB cells = experiment: antitumor activity in vitro with cultured KB cells (growth inhibition, Coulter counter); type: cell-based, human; details: four days, 37° C., MEM - 10% calf serum; for IC50: Homo sapiens, KB, 96 h, read-out: ED50 (concentration at which the growth inhibition was substantially 50% based on the control); for ED50 (concentration at which the growth inhibition was substantially 50% based on the control): 5760 min
Description: The antitumor activity of the compounds of the present invention was determined in vitro with cultured KB cells.
The experiment was conducted by using KB derived from a human epidermoid carcinoma of the mouth and Eagle's minimal essential medium (MEM) - 10% calf serum at 37° C. in a carbon dioxide incubator (5% CO2).
KB cells were diluted at a dilution rate of 1×10^4 /ml medium. 2 ml of the sample thus formed was placed in a 30-mm plastic dish so that the final concentration of the compounds of the present invention would be 100, 30, 10, 3 or 1 μg/ml. After four days, the cells were peeled from the dish surface with trypsin and the number of the cells was counted with a Coulter counter.
The criterion according to NCI (U.S.A.) was employed to determine the concentration (ED50) at which the growth inhibition was substantially 50% based on the control.

S-180 salcoma cells = experiment: antitumor activity in ICR mice inoculated with S-180 salcoma cells (increase in life-span); type: in vivo, mouse (female ICR mice); details: intra-peritoneal, once a day Day 1 to 5; for Number of surviving mice: observation period 52 days, saline control 0/12, DMSO 0/7; for Prolongation extent of life: saline control 0, DMSO -11; for Average days of the prolongation of life: saline control 13.3 ± 3.7, DMSO 12.0 ± 3.0
Description: Female ICR mice being 6 weeks old were inoculated abdominally with 0.2 ml of a sample of cell suspension in PBS containing 5×10^5 S-180 salcoma cells, on Day 0. Once a day for 5 days (Day 1 to 5) from the next day, they were inoculated abdominally with the above shown compounds of A-IV-b, B-VI-6 and D-I-a, respectively, dispersed in 6 wt. % dimethylsulfoxide solution, with intra-peritoneal injection of 25 or 50 mg/kg. A saline and a solvent were used for reference control. 12 to 7 mice were used in the saline control and the drug test, respectively. Antitumor activity was determined by the mean survival time (prolongation of life) of the test group (T) with that of the control group (C) and is shown in terms of an increase in life-span (prolongation extent of life), that is, ((T/C)×100%). The observation period was 52 days and survivors were excluded from calculation.

COc1cc(CN2C(=O)OCC2Cc2ccc3c(c2)OCO3)cc(OC)c1OC (stereo not shown) [A-III]
IC50 (KB cells): 35 µg/mL (≈ 87.2 µM)

COc1cc2c(c(OC)c1OC)-c1cc3c(cc1CC1COC(=O)N1C2)OCO3 (stereo not shown) [A-IV-a]
ED50 (concentration at which the growth inhibition was substantially 50% based on the control) (KB cells): 47.0 µg/mL (≈ 118 µM)

COc1cc2c(c(OC)c1OC)-c1cc3c(cc1CC1COC(=O)N1C2)OCO3 (stereo not shown) [A-IV-b]
ED50 (concentration at which the growth inhibition was substantially 50% based on the control) (KB cells): < 0.3 µg/mL | Number of surviving mice (S-180 salcoma cells; 25 mg/kg): 0/7 | Prolongation extent of life (S-180 salcoma cells; 25 mg/kg): -4% | Average days of the prolongation of life (S-180 salcoma cells; 25 mg/kg): 12.9 ± 2.3 days | Number of surviving mice (S-180 salcoma cells; 50 mg/kg): 0/7 | Prolongation extent of life (S-180 salcoma cells; 50 mg/kg): 40% | Average days of the prolongation of life (S-180 salcoma cells; 50 mg/kg): 19.0 ± 5.5 days

COc1cc2c(c(OC)c1O)-c1cc3c(cc1CC1COC(=O)N1C2)OCO3 (stereo not shown) [A-IX-a]
IC50 (KB cells): 50 µg/mL (≈ 130 µM)

COc1cc2c(c(OC)c1OC)-c1cc3c(cc1CC(CO)N(C)C2)OCO3 (stereo not shown) [A-V-a]
IC50 (KB cells): 1.5 µg/mL (≈ 3.87 µM)

COc1cc2c(c(OC)c1OC)-c1cc3c(cc1CC(CO)N(C)C2)OCO3 (stereo not shown) [A-V-b]
ED50 (concentration at which the growth inhibition was substantially 50% based on the control) (KB cells): 1.1 µg/mL (≈ 2.84 µM)

COc1cc2c(c(OC)c1OC)-c1cc3c(cc1CC(COC(C)=O)N(C)C2)OCO3 (stereo not shown) [A-VI-a]
IC50 (KB cells): 1.65 µg/mL (≈ 3.84 µM)

COc1cc2c(c(OC)c1OC)-c1cc3c(cc1CC(CO)N(C=O)C2)OCO3 (stereo not shown) [A-VII-a]
IC50 (KB cells): < 0.3 µg/mL

COc1c(O)cc2c(c1OC)-c1cc3c(cc1CC1COC(=O)N1C2)OCO3 (stereo not shown) [A-VIII-a]
IC50 (KB cells): 17 µg/mL (≈ 44.1 µM)

COc1cc2c(c(OC)c1OC)-c1cc3c(cc1CC1CNC(=O)N1C2)OCO3 (stereo not shown) [B-VI-b]
IC50 (KB cells): < 0.3 µg/mL | Number of surviving mice (S-180 salcoma cells; 25 mg/kg): 2/7 | Prolongation extent of life (S-180 salcoma cells; 25 mg/kg): 50% | Average days of the prolongation of life (S-180 salcoma cells; 25 mg/kg): 20.2 ± 4.2 days | Number of surviving mice (S-180 salcoma cells; 50 mg/kg): 0/7 | Prolongation extent of life (S-180 salcoma cells; 50 mg/kg): 120% | Average days of the prolongation of life (S-180 salcoma cells; 50 mg/kg): 29.7 ± 3.9 days

COc1cc2c(c(OC)c1OC)-c1cc3c(cc1CC1CN(CC(=O)OC(C)(C)C)C(=O)N1C2)OCO3 (stereo not shown) [B-VII-b]
IC50 (KB cells): 1.7 µg/mL (≈ 3.32 µM)

COc1cc2c(c(OC)c1OC)-c1cc3c(cc1CC1CN(CC(=O)O)C(=O)N1C2)OCO3 (stereo not shown) [B-VIII-b]
IC50 (KB cells): 5.4 µg/mL (≈ 11.8 µM)

COc1cc(CN2C(=O)NCC2Cc2ccc3c(c2)OCO3)cc(OC)c1OC (stereo not shown) [B-V]
IC50 (KB cells): 47 µg/mL (≈ 117 µM)

COc1cc(C2c3cc4c(cc3CC3COC(=O)N32)OCO4)cc(OC)c1OC [D-I-a]
Number of surviving mice (S-180 salcoma cells; 25 mg/kg): 0/7 | Prolongation extent of life (S-180 salcoma cells; 25 mg/kg): 62% | Average days of the prolongation of life (S-180 salcoma cells; 25 mg/kg): 21.9 ± 4.0 days | Number of surviving mice (S-180 salcoma cells; 50 mg/kg): 0/7 | Prolongation extent of life (S-180 salcoma cells; 50 mg/kg): 48% | Average days of the prolongation of life (S-180 salcoma cells; 50 mg/kg): 20.0 ± 5.6 days

COc1cc(C2c3cc4c(cc3C(N=[N+]=[N-])C3COC(=O)N23)OCO4)cc(OC)c1OC [D-X-a]
ED50 (concentration at which the growth inhibition was substantially 50% based on the control) (KB cells): 0.68 µg/mL (≈ 1.54 µM)

COc1cc(C2c3cc4c(cc3C(N=[N+]=[N-])C3COC(=O)N23)OCO4)cc(OC)c1OC [D-X-b]
ED50 (concentration at which the growth inhibition was substantially 50% based on the control) (KB cells): < 0.3 µg/mL

COc1cc(C2c3cc4c(cc3C(N)C3COC(=O)N23)OCO4)cc(OC)c1OC [D-XI-b]
IC50 (KB cells): < 0.3 µg/mL
